Data set [1] concerns the target T1, DPP-IV (Homo sapiens, UniProt P27487).
T1 construct: purchased Abnova KA1311
Particulars: cited from earlier work. The source says: Diabetes is a chronic disease marked by high blood sugar levels and disruptions in fat and protein metabolism due to insulin resistance and deficiency. It is categorized into three types: type 1, type 2, and gestational diabetes. As reported by the International Diabetes Federation (IDF), approximately 537 million adults (aged 20–79 years) were living with diabetes in 2021, a number expected to rise to 700 million by 2045 [7]. Type 2 diabetes mellitus (T2DM) constitutes about 90% of these cases. Without treatment, T2DM can lead to severe complications such as coronary issues, retinopat ... || The results of mass spectrometry identification guided the screening of peptide sequences based on certain criteria. […] In the current landscape of research aiming to identify DPP-IV inhi ...

Data set [2] has as its target T1, DPP-IV. Put plainly: DPP-IV inhibitor screening assay (KA1311 kit, Gly-Pro-AMC). Particulars: synthetic peptides; 37 °C, 30 min; Gly-Pro-AMC substrate; fluorescence ex 350 nm / em 460 nm; mean ± standard deviation (n = 3); read-out: IC50 (DPP-IV inhibition). The class given is biochemical. On the procedure:
The DPP-IV inhibition rate and the corresponding IC50 of each component were determined using the DPP-IV inhibitor screening assay kit (KA1311, Abnova, Taipei, Taiwan, China). For each component, extracts were mixed with buffer solution at various concentrations (1 mg/mL, 0.1 mg/mL, 0.05 mg/mL, 0.01 mg/mL), DPP-IV, and the substrate (Gly-Pro-AMC solution) in 96-well plates. The reaction was conducted at the normal human body temperature of 37 °C for 30 min. Free AMC (7-amino-4-methylcoumarin) was quantified using a multifunctional fluorescent zymography assay, with excitation light at 350 nm and emission light at 460 nm, and expressed as fluorescence intensity. The positive control utilized was 1 μg/mL of […]. A standard curve for all inhibition rates was plotted, and the maximum half inhibitory concentration (IC50) value of each peptide was determined using GraphPad Prism 9.5.1. DPP-IV inhibition (%) = {(F initial activity − F sample)/F initial activity} × 100%(2)
The DPP-IV inhibitory activity assay was performed in three parallel groups, and IC50 data were expressed as the mean ± standard deviation (S.D.). Data were analyzed using SPSS 20.0 software (SPSS Inc., Chicago, IL, USA) for unifactorial and bifactorial analyses, and the significance of the data was indicated by p < 0.05.

The target in data set [3] is T1, DPP-IV. Briefly: DPP-IV inhibition pattern (Lineweaver–Burk plots). The format is biochemical. Particulars: substrate 20, 15, 10, 5, 1 μM, peptide greater than IC50, less than IC50, and 0. How it is done: The pattern of DPP4 inhibition of synthetic peptides was further analyzed using Lineweaver–Burk plots. Images were plotted at different concentrations of substrates (20, 15, 10, 5, 1 μM) and peptide solution (concentration was greater than IC50, less than IC50, and 0) with 1/[S] as the X-value and 1/V as the Y-value. The mode of inhibition of DPP-IV by the synthetic peptide was determined based on the intercept of the Lineweaver–Burk curve.

For data set [4] the following is noted: side effects such as nausea; cited from earlier work. The source says: Diabetes is a chronic disease marked by high blood sugar levels and disruptions in fat and protein metabolism due to insulin resistance and deficiency. It is categorized into three types: type 1, type 2, and gestational diabetes. As reported by the International Diabetes Federation (IDF), approximately 537 million adults (aged 20–79 years) were living with diabetes in 2021, a number expected to rise to 700 million by 2045 [7]. Type 2 diabetes mellitus (T2DM) constitutes about 90% of these cases. Without treatment, T2DM can lead to severe complications such as coronary issues, retinopat ...

A word on the IC50: it is the midpoint of a concentration-inhibition curve.

Where two headings read alike, the source gives them in different places. Where a SMILES comes first, the peptide text is derived from it.

T1 sequence (P27487 whole entry): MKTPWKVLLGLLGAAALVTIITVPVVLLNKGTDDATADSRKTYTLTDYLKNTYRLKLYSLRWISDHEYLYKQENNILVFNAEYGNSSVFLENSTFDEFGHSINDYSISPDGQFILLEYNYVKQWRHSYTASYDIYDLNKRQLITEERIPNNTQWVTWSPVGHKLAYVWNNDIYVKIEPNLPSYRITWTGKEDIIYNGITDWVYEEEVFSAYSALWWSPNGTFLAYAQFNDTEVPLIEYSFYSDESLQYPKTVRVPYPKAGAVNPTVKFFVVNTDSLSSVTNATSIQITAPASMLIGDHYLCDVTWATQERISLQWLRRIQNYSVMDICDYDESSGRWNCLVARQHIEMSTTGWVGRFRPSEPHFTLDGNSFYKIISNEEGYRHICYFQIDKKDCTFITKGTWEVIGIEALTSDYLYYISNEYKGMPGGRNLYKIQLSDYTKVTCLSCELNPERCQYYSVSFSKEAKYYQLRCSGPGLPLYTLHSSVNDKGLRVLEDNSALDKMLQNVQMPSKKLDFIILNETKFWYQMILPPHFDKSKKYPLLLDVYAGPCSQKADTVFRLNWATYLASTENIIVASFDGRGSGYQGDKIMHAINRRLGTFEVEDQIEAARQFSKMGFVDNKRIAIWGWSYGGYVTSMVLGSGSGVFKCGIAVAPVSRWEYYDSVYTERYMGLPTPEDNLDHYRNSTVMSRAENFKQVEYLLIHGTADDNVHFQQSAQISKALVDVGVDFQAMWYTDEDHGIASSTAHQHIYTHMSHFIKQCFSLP

In the case of “WGDEHIPGSPYH [previously reported peptide from silver carp]”, the IC50 with DPP-IV [1] (from silver carp) was 350 µM.
As to IPSK, the DPP-IV inhibitory effect result at DPP-IV [1] (peptides from milk proteins) was “DPP-IV inhibitory effects”.
Consider `CC(C)[C@H](NC(=O)[C@@H](N)Cc1ccccc1)C(=O)N[C@@H](C)C(=O)O` [FVA] (H-Phe-Val-Ala-OH), for which the IC50 at DPP-IV [2] was 0.402 ± 0.00528 µM. In addition, at DPP-IV [3], the “effect on Km” value is reported as “increased Km”.
`CC(C)[C@H](N)C(=O)N[C@@H](Cc1ccc(O)cc1)C(=O)N1CCC[C@H]1C(=O)O` [VYP] (H-Val-Tyr-Pro-OH): on DPP-IV [2], the IC50 amounted to 0.399 ± 0.0474 µM.
As to “YYGYTGAFR [previously reported peptide from Atlantic salmon]”, in the data set with DPP-IV [1] (from Atlantic salmon), the IC50 was 1100 µM.
For `CN(C)C(=N)N=C(N)N` [Metformin], the “patients suffering from side effects” value in data set [4] is reported as “around 30%”.
In the case of “GPAG [peptide (300.4 Da) from pig skin gelatin hydrolysate]”, the half-maximal inhibitory concentration (IC50) with DPP-IV [1] (peptides from pig skin gelatin hydrolysate) was 41.9 µM.
Take “YPFPGP [previously reported peptide extracted from milk]”: the IC50 with DPP-IV [1] (extracted from milk) is 749 µM.
Turning to `CC(C)C[C@H](NC(=O)CNC(=O)[C@@H]1CCCN1)C(=O)N[C@H](C(=O)NCC(=O)O)C(C)C` [PGLVG] (H-PGLVG-OH), the 50% inhibitory concentration (IC50) at DPP-IV [2] was found to be 0.11 ± 0.0431 µM. In addition, at DPP-IV [3], the “effect on Km” value is on record as “Km is increased”.
Consider `O=C(CNC(=O)[C@@H]1CCCN1C(=O)[C@@H]1CCCN1)N[C@@H](Cc1ccccc1)C(=O)O` [PPGF] (H-PPGF-OH), for which the IC50 on DPP-IV [2] was determined as 0.00463 ± 0.00156 µM.
